Source: patent publication US10718028B2, “Fluorescent probes for abasic site detection” (CASE WESTERN RESERVE UIVERSITY, priority 2015, dated 2020)

Legend:
[1] = Absorption and emission spectra of AP site binding probes in ethanol; format: physicochemical
Method: (§1) NMR spectra were recorded on a Varian Mercury 300 MHz, a Varian Inova 400, and a Varian Inova 600 MHz spectrometer at room temperature, except where otherwise noted. Chemical shifts for 1H NMR were reported as 6, parts per million, and referenced to CHCl3 at 7.26 ppm or TMS at 0 ppm. Chemical shifts for ^13C NMR were reported as 6 and referenced to the center line of the CDCl3 triplet at 77.0 ppm or CH2Cl2 pentet at 54.0 ppm. Low resolution mass spectra were recorded on a ThermoScientific LCQ Advantage or a Finnigan LCQ Deca mass spectrometer. Fluorescence data were collected on a Varian Cary Eclipse fluorescence spectrophotometer in a quartz cuvette with a 1 cm pathlength or on a Tecan Infinite M200 scanner. Absorbance data were collected on a Varian Cary 50 Bio UV-Visible Spectrophotometer in a quartz cuvette with a 1 cm path length.
To characterize the fluorescent properties, the absorption and emission spectra were collected for all final compounds.

[2] = test system: AP sites in calf thymus AP DNA; experiment: Genomic DNA time course of Cy7MX binding; conditions: heat/acid treated DNA, 37° C.
Method: Calf thymus DNA was purchased from Sigma and was reconstituted overnight at 4° C. in either H2O or 500 mM MX (to eliminate basal AP sites) with gentle shaking (1.5 mL water or solution per 5 mg DNA). For samples reconstituted in MX solution, an ethanol precipitation was performed twice before heat and acid treatment (vide infra) then reconstituted in water. The DNA-water solution was aliquoted to 1.5 mL Eppendorf tubes (360 μL) and 10× Citrate buffer (1M NaCl, 100 μM monosodium phosphate, 100 μM monosodium citrate, pH 5.0) was added to a final concentration of 1×. For t=0 min samples, ice-cold 100% EtOH (1.0 mL) was added immediately and the Eppendorf tubes stored at −20° C. Other samples were placed in a 70° C. heating block for 15-90 minutes in 15-minute increments. Samples were removed from heat, precipitated in ice-cold 100% EtOH (1.0 mL), and then chilled at −20° C. for at least 20 minutes. Samples were centrifuged at 12,000×G for 10 min at 4° C. The supernatant was discarded. The process was repeated once beginning with the addition of EtOH (1.0 mL). The DNA pellet was dissolved in 700 μL H2O or TE buffer. […]
A 100 mM stock solution of Cy7MX in DMSO was diluted to 25 μM in H2O. […] Aliquots (125 μL) of the samples were added to a black, clear-bottom 96 well plate (Corning) and analyzed with 750 nm excitation and 800 nm emission. Fluorescence was adjusted to DNA concentration.

[3] = Stability of Cy7MX and Cy7MX-treated samples; format: physicochemical
[4] = Fluorescence and absorbance properties of Cy7MX in various solvents (Example 1); format: physicochemical
Method: as §1
Fluorescent quantum yields were determined by a comparative method to an indocyanine green (ICG) standard (Φ=0.132 in EtOH) with refractive index correction according to Equation 1:
[formula] • where Φ is the quantum yield; F is the integrated fluorescence intensity (area); A is the absorbance; n is the refractive index of the solvent (ethanol, 1.3611; acetonitrile, 1.3442; water, 1.333; and chloroform, 1.4459); and R is the reference sample, ICG in EtOH. Sample and reference fluorophores were excited at 700 nm and emission spectra integrated from 705 to 1000 nm and absorption measurements were collected at 700 nm. Data were collected in a quartz cuvette with a 1 cm pathlength. Absorbance maxima for each sample were kept at or below 0.2 absorbance units to avoid inner filter effects. Solvents used were spectroscopic grade ethanol and HPLC grade acetonitrile, HPLC grade chloroform, and HPLC grade water. For the water solution, Cy7MX was first dissolved first in MeCN and diluted at least 200 fold. Synthesis of Compounds for AP Site Detection
Further characterization was conducted for Cy7MX (Table 2), Cy7MX, because it was chosen for extensive investigation in biological studies. The absorption and emission spectra were collected in polar protic (water and ethanol), polar aprotic (acetonitrile), and relatively nonpolar (chloroform) solvents. […] The extinction coefficient and the fluorescence quantum yields for Cy7MX compared favorably to other heptamethine cyanine dyes.

[5] = test system: AP sites in calf thymus DNA; experiment: MX and Cy7MX genomic DNA blocking assay; format: binding; conditions: not blocked by MX
Method: FIG. 10 illustrates fluorescence response and MX blocking of Cy7MX. Calf thymus DNA treated with heat and acid for increments of 15 min to give a linear relative number of AP sites. AP DNA was then pretreated with MX (50 mM, +MX) or NaCl (50 mM, −MX) followed by incubation with Cy7MX (0.05 mM). Fluorescence measures show a linear response to Cy7MX when not blocked by MX.
Calf thymus DNA was purchased from Sigma and was reconstituted overnight at 4° C. in either H2O or 500 mM MX (to eliminate basal AP sites) with gentle shaking (1.5 mL water or solution per 5 mg DNA). For samples reconstituted in MX solution, an ethanol precipitation was performed twice before heat and acid treatment (vide infra) then reconstituted in water. The DNA-water solution was aliquoted to 1.5 mL Eppendorf tubes (360 μL) and 10× Citrate buffer (1M NaCl, 100 μM monosodium phosphate, 100 μM monosodium citrate, pH 5.0) was added to a final concentration of 1×. For t=0 min samples, ice-cold 100% EtOH (1.0 mL) was added immediately and the Eppendorf tubes stored at −20° C. […]
To 80 μL aliquots of DNA was added either 10 μL of MX (500 mM, pH 7) or vehicle control (500 mM NaCl). […] Aliquots (125 μL) of the samples were added to a black, clear-bottom 96 well plate (Corning) and analyzed with 700 nm excitation and 790 nm emission. Fluorescence was adjusted to DNA concentration.

Question: Which results are given for `CCCN1/C(=C/C=C2\CCCC(/C=C/C3=[N+](CCC)c4ccccc4C3(C)C)=C2Oc2ccc(CC(=O)NCCCON)cc2)C(C)(C)c2ccccc21` [Cy7MX, 2-((E)-2-((E)-2-(4-(2-((3-(aminooxy)propyl)amino)-2-oxoethyl)phenoxy)-3-((E)-2-(3,3-dimethyl-1-propylindolin-2-ylidene)ethylidene)cyclohex-1-en-1-yl)vinyl)-3,3-dimethyl-1-propyl-3H-indol-1-ium 2,2,2-trifluoroacetate]?
Answer: Stokes shift [1]: 20 nm; λabs max [1]: 770 nm; λem max [1]: 796 nm; time to complete reaction [2]: approximately 10 min; stability of Cy7MX with MX ([3]; in the presence of light, MX solutions): decompose Cy7MX rapidly; stability of Cy7MX assay samples ([3]; stored in the dark): stable for at least two days; Φ ([4]; CHCl3): 32.6%; λabs ([4]; CHCl3): 770 nm; λem ([4]; CHCl3): 791 nm; Φ ([4]; EtOH): 36.3%; ε ([4]; EtOH): 127,000 M^−1cm^−1; λabs ([4]; EtOH): 770 nm; λem ([4]; EtOH): 796 nm; Φ ([4]; H2O): 6.3%; ε ([4]; H2O): 140,000 M^−1cm^−1; λabs ([4]; H2O): 767 nm; λem ([4]; H2O): 790 nm; Φ ([4]; MeCN): 45.9%; ε ([4]; MeCN): 154,000 M^−1cm^−1; λabs ([4]; MeCN): 767 nm; λem ([4]; MeCN): 789 nm; solvatochromism ([4]; water, ethanol, acetonitrile, chloroform): No solvatochromism was observed; fluorescence intensity versus DNA heat/acid treatment time [5]: linear relationship
